Reference: patent publication US10793557B2, “Sting agonist compounds” (Merck Sharp & Dohme Corp., priority 2018, dated 2020)

Assays:
full-length HAQ STING = biological target: T1, full-length HAQ STING (Homo sapiens, UniProt Q86WV6, G230A/H232R/R293Q/R71H); experiment: 3H-cGAMP filtration binding assay (HAQ STING); details: competition with tritiated cGAMP, HAQ STING membrane
T1 construct: AviTag (after GG linker) (C); HRV3C cleavage site (after GS linker) (C); HIS8 (C); made in house; host or cells: Trichoplusia ni (Hi-Five) insect cells infected with baculovirus (virus generated and amplified in Sf21 cells); used as a washed membrane preparation
Outline: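 Hi-Five (T. ni) membranes overexpressing the STING variant (2.2 ug/ml working) preincubated with compound 60 min at RT in PBS, then [3H]cGAMP (8 nM working stock) added for 60 min at RT. Bound radioactivity captured on GF/B filters and counted by scintillation; EC50 from 4-parameter fit of control-normalized activity.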

full-length WT STING = biological target: T2, full-length WT STING (Homo sapiens, UniProt Q86WV6, H232R); experiment: 3H-cGAMP filtration binding assay (WT STING); details: for EC50: competition with tritiated cGAMP, WT STING membrane; for inhibition at 20 µM: at 20,000 nM compound
T2 construct: AviTag (after gg linker) (C); HRV3C cleavage site (after gs linker) (C); HIS8 (C); made in house; host or cells: Trichoplusia ni (Hi-Five) insect cells infected with baculovirus (virus generated and amplified in Sf21 cells); used as a washed membrane preparation
Outline: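 Competitive filtration binding of [3H]cGAMP (16 nM working stock) to T. ni membranes overexpressing full-length WT human STING, 60 min at RT in PBS. Bound radioactivity counted after GF/B filtration; 10-point 1:3 titration, EC50 from 4-parameter fit after control normalisation.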

[1] = tested on: secretion of interferon-beta from THP1 cells; experiment: IFN-β secretion in THP1 cell culture (5 h); assay type: cell-based; details: Homo sapiens, THP-1, 5 h, 30 uM cGAMP = 100%; for activation at 30 µM: compound at 30 μM, read-out: % Effect at 30 μM relative to 2′3′-cGAMP; for activation at 3 µM: compound at 3 uM, read-out: % Effect relative to 2′3′-cGAMP (@ 3 uM)
Outline: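 Thawed THP1 cells (0.8×10^6/mL, RPMI with 0.5% FBS) exposed to compounds 1.5–30000 nM (0.3% DMSO) for 5 h at 37 °C. Supernatant IFN-β quantified by AlphaLISA. Percent effect normalised to 30 uM cGAMP and DMSO controls; EC50 from 4-parameter fit.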

T1 sequence (Q86WV6 with tags, fused parts or gaps R71H/G230A/H232R/R293Q): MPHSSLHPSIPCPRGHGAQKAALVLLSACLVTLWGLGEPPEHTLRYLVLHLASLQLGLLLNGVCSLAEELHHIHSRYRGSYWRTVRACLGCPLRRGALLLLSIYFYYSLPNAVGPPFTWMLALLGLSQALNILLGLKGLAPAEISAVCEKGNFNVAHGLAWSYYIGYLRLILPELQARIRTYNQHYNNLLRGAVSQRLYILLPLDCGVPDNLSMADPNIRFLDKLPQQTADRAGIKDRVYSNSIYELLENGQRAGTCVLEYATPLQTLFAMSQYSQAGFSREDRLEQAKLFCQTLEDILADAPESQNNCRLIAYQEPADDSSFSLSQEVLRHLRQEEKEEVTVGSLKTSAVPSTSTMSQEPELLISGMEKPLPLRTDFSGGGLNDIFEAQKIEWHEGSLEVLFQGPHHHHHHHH
T2 sequence (Q86WV6 with tags, fused parts or gaps H232R): as the sequence (Q86WV6 with tags, fused parts or gaps R71H/G230A/H232R/R293Q) above, with H71R, A230G, Q293R counted along it

Row | EC50 (full-length HAQ STING) | EC50 (full-length WT STING) | inhibition at 20 µM (full-length WT STING) | Compound | activation at 30 µM [1] | activation at 3 µM [1]
1 | 1 nM | 4 nM | – | COc1cc2sc(C(=O)CCC(=O)O)cc2c(F)c1OCCOc1c(OC)cc2sc(C(=O)C[C@H](C)C(=O)O)cc2c1F [Example 63, (S)-4-(5-(2-((2-(3-carboxypropanoyl)-4-fluoro-6-methoxybenzo[b]thiophen-5-yl)oxy)ethoxy)-4-fluoro-6-methoxybenzo[b]thiophen-2-yl)-2-methyl-4-oxobutanoic acid] | 62% | –
2 | 1 nM | 4 nM | – | COc1cc2sc(C(=O)CCC(=O)O)cc2cc1OCCCc1c(OC)cc2sc(C(=O)C[C@H](C)C(=O)O)cc2c1F [Example 161, (S)-4-(5-(3-((2-(3-carboxypropanoyl)-6-methoxybenzo[b]thiophen-5-yl)oxy)propyl)-4-fluoro-6-methoxybenzo[b]thiophen-2-yl)-2-methyl-4-oxobutanoic acid] | 106% | –
3 | 213 nM | 1040 nM | – | COc1cc2sc(C(=O)C[C@H](C)C(=O)O)cc2cc1OCCCOc1c(OC)cc2sc(CC[C@H](C)C(=O)O)cc2c1Cl [Example 150, (S)-4-(5-(3-((2-((S)-3-carboxybutyl)-4-chloro-6-methoxybenzo[b]thiophen-5-yl)oxy)propoxy)-6-methoxybenzo[b]thiophen-2-yl)-2-methyl-4-oxobutanoic acid] | – | 52%
4 | 2 nM | 19 nM | – | COc1cc2sc(C(=O)CCC(=O)O)cc2cc1OCCCOc1cc2sc(C(=O)CCC(=O)O)cc2cc1OC [Example 126, 4-(5-(3-((2-(3-carboxypropanoyl)-5-methoxybenzo[b]thiophen-6-yl)oxy)propoxy)-6-methoxybenzo[b]thiophen-2-yl)-4-oxobutanoic acid] | 91% | –
5 | 12800 nM | – | 43% | COC(=O)[C@@H](C)CC(=O)c1cc2cc(OCCCOc3cc4sc(C(=O)C[C@H](C)C(=O)OC)cc4cc3OC)c(OC)cc2s1 [Example 48, methyl (S)-4-(6-methoxy-5-(3-((5-methoxy-2-((S)-4-methoxy-3-methyl-4-oxobutanoyl)benzo[b]thiophen-6-yl)oxy)propoxy)benzo[b]thiophen-2-yl)-2-methyl-4-oxobutanoate] | 22% | –
6 | 1 nM | 2 nM | – | COc1cc2sc(C(=O)C[C@H](C)C(=O)O)cc2cc1OCCCOc1c(OC)cc2sc(C(=O)C[C@H](C)C(=O)O)cc2c1F [Example 69, (S)-4-(5-(3-((2-((S)-3-carboxybutanoyl)-4-fluoro-6-methoxybenzo[b]thiophen-5-yl)oxy)propoxy)-6-methoxybenzo[b]thiophen-2-yl)-2-methyl-4-oxobutanoic acid] | 46% | –
7 | 6 nM | 117 nM | – | COc1cc2sc(C(=O)C[C@H](C)C(=O)O)cc2cc1CCCCc1cc2cc(C(=O)C[C@H](C)C(=O)O)sc2cc1OC [Example 1, (2S,2′S)-4,4′-[butane-1,4-diylbis(6-methoxy-1-benzothiene-5,2-diyl)]bis(2-methyl-4-oxobutanoic acid)] | 26% | –
8 | 4 nM | 10 nM | – | COc1cc2sc(C(=O)CCC(=O)O)cc2cc1OCCOc1c(OC)cc2sc(C(=O)CCC(=O)O)cc2c1F [Example 36, 4-(5-(2-((2-(3-carboxypropanoyl)-4-fluoro-6-methoxybenzo[b]thiophen-5-yl)oxy)ethoxy)-6-methoxybenzo[b]thiophen-2-yl)-4-oxobutanoic acid] | 102% | –
9 | 1 nM | 1 nM | – | COc1cc2sc(C(=O)C[C@H](C)C(=O)O)cc2c(F)c1OCCCOc1c(OC)cc2sc(C(=O)C[C@H](C)C(=O)O)cc2c1F [Example 156, (2S,2′S)-4,4′-((propane-1,3-diylbis(oxy))bis(4-fluoro-6-methoxybenzo[b]thiophene-5,2-diyl))bis(2-methyl-4-oxobutanoic acid)] | – | 118%
10 | 2 nM | 2 nM | – | COc1cc2sc(C(=O)C[C@H](C)C(=O)O)cc2c(F)c1OCCC(C)Oc1c(OC)cc2sc(C(=O)C[C@H](C)C(=O)O)cc2c1F (stereo partly drawn) [Example 138, (2S,2′S)-4,4′-((butane-1,3-diylbis(oxy))bis(4-fluoro-6-methoxybenzo[b]thiophene-5,2-diyl))bis(2-methyl-4-oxobutanoic acid)] | 89% | –
11 | 1 nM | 2 nM | – | COc1cc2sc(C(=O)C[C@H](C)C(=O)O)cc2cc1OCCCOc1c(OC)cc2sc(C(=O)CCC(=O)O)cc2c1F [Example 72, (S)-4-(5-(3-((2-(3-carboxypropanoyl)-4-fluoro-6-methoxybenzo[b]thiophen-5-yl)oxy)propoxy)-6-methoxybenzo[b]thiophen-2-yl)-2-methyl-4-oxobutanoic acid] | 77% | –
12 | 89 nM | 362 nM | – | COc1cc2sc(C(=O)CCC(=O)O)nc2cc1CCCc1cc2nc(C(=O)CCC(=O)O)sc2cc1OC [Example 27, 4,4′-(propane-1,3-diylbis(6-methoxybenzo[d]thiazole-5,2-diyl))bis(4-oxobutanoic acid)] | 113% | –
13 | 86 nM | 1360 nM | – | COc1cc2cc(C(=O)C[C@H](C)C(=O)O)sc2cc1OCCCc1nc2c(o1)c(OC)cc1sc(C(=O)C[C@H](C)C(=O)O)cc12 [Example 40, (S)-4-(6-(3-(7-((S)-3-carboxybutanoyl)-4-methoxythieno[2′,3′:5,6]benzo[1,2-d]oxazol-2-yl)propoxy)-5-methoxybenzo [b]thiophen-2-yl)-2-methyl-4-oxobutanoic acid] | 27% | –
14 | 1550 nM | – | 43% | COc1cc2sc(C(=O)C[C@H](C)C(=O)O)cc2c(F)c1OCCCCCOc1c(OC)cc2sc(C(=O)[C@@H]3CC[C@H]3C(=O)O)cc2c1F [Example 121, trans-2-(5-((5-((2-((S)-3-carboxybutanoyl)-4-fluoro-6-methoxybenzo[b]thiophen-5-yl)oxy)pentyl)oxy)-4-fluoro-6-methoxybenzo[b]thiophene-2-carbonyl)cyclobutane carboxylic acid] | 26% | –
15 | 1800 nM | – | 32% | COc1cc2sc(C(=O)CCC(=O)O)cc2c(F)c1OCCCCCOc1c(OC)cc2sc(C(=O)[C@@H]3CC[C@H]3C(=O)O)cc2c1F (stereo in doubt) [Example 119, 2-(5-((5-((2-(3-carboxypropanoyl)-4-fluoro-6-methoxybenzo[b]thiophen-5-yl)oxy)pentyl)oxy)-4-fluoro-6-methoxybenzo[b]thiophene-2-carbonyl)cyclo-butanecarboxylic acid] | 13% | –

Row | Compound | EC50 (full-length HAQ STING) | EC50 (full-length WT STING) | inhibition at 20 µM (full-length WT STING) | activation at 30 µM [1] | activation at 3 µM [1]
16 | COc1cc2sc(C[C@@H]3CC[C@H]3C(=O)O)cc2c(F)c1OCCCCOc1c(OC)cc2sc(C(=O)C[C@H](C)C(=O)O)cc2c1F [Example 136, 2-((5-(4-((2-((S)-3-carboxybutanoyl)-4-fluoro-6-methoxybenzo[b]thiophen-5-yl)oxy)butoxy)-4-fluoro-6-methoxybenzo[b]thiophen-2-yl)methyl)cyclo-butanecarboxylic acid] | 314 nM | 10300 nM | – | 37% | –
